From the SangsterLogP compilation come the findings set out here.

One data set can be described thus: method code SF, from DOI: 10.2307/3575799, PMID: 7199747. The following applies: pH 7.4.
Consider `CC(C(=O)NCC(O)CO)n1ccnc1[N+](=O)[O-]` (stereo not given), for which the logD (as a rule, lipophilicity at a set pH, counting ionised and neutral species) was -1.64.
The same measure, in the same setting: under `CC(C(=O)NCCO)n1ccnc1[N+](=O)[O-]` (stereo not given) stands -1.16; under `O=COCCN(CCOC=O)C(=O)Cn1ccnc1[N+](=O)[O-]`, -1.66.
The same measure, in the same setting: with `CCC(=O)OCCN(CCOC(=O)CC)C(=O)Cn1ccnc1[N+](=O)[O-]` the figure was 0.44; with `O=C(Cn1ccnc1[N+](=O)[O-])NC(CO)(CO)CO`, -1.77; with `O=C(Cn1ccnc1[N+](=O)[O-])N(CCO)CCO`, -1.59.
The same measure, in the same setting: under `NC(=O)Cn1ccnc1[N+](=O)[O-]` stands -1.22.

Another data set can be described thus: method code SF-AS, from DOI: 10.2307/3575799, PMID: 7199747. As to conditions: pH 7.4.
`CC(=O)OCC(CNC(=O)Cn1ccnc1[N+](=O)[O-])OC(C)=O` (stereo not given) showed a pH-dependent lipophilicity (logD) of -0.77.
Same read-out and setting: under `CC(=O)OCCN(CCOC(C)=O)C(=O)Cn1ccnc1[N+](=O)[O-]` stands -0.64; under `CC(O)CN(CC(C)O)C(=O)Cn1ccnc1[N+](=O)[O-]` (stereo not given), -0.96.
